Test results from ChEMBL document CHEMBL1153024, “Antibacterial diterpenes from Plectranthus ernstii” (2009).
Converted amounts (≈) assume the structure as drawn. The source made the active and inactive calls. No cut-off for these calls is given here.

Assays:
[1] = tested on: Staphylococcus aureus; assay: Antibacterial activity against Staphylococcus aureus 1199B overexpressing NorA at 128 ug/ml after 24 hrs; format: functional, organism-based
[2] = tested on: Staphylococcus aureus; assay: Antibacterial activity against Staphylococcus aureus EMRSA-15 at 128 ug/ml after 24 hrs; format: functional, organism-based
[3] = tested on: Mycolicibacterium phlei; assay: Antibacterial activity against Mycobacterium phlei after 72 hrs; format: functional
[4] = tested on: Staphylococcus aureus; assay: Antibacterial activity against Staphylococcus aureus ATCC 25923 at 128 ug/ml after 24 hrs; format: functional, organism-based
[5] = tested on: Staphylococcus aureus; assay: Antibacterial activity against Staphylococcus aureus RN4220 overexpressing MsrA at 128 ug/ml after 24 hrs; format: functional, organism-based
[6] = tested on: Mycolicibacterium smegmatis; assay: Antibacterial activity against Mycobacterium smegmatis after 72 hrs; format: functional
[7] = tested on: Staphylococcus aureus; assay: Antibacterial activity against Staphylococcus aureus XU-212 overexpressing TetK, mecA at 128 ug/ml after 24 hrs; format: functional, organism-based
[8] = tested on: Mycolicibacterium fortuitum; assay: Antibacterial activity against Mycobacterium fortuitum after 72 hrs; format: functional
[9] = tested on: Staphylococcus aureus; assay: Antibacterial activity against Staphylococcus aureus EMRSA-15 after 24 hrs; format: functional; conditions: EMRSA-15, 24 h
[10] = tested on: Staphylococcus aureus; assay: Antibacterial activity against Staphylococcus aureus 1199B overexpressing NorA after 24 hrs; format: functional
[11] = tested on: Staphylococcus aureus; assay: Antibacterial activity against Staphylococcus aureus RN4220 overexpressing MsrA after 24 hrs; format: functional; conditions: RN4220, 24 h
[12] = tested on: Staphylococcus aureus; assay: Antibacterial activity against Staphylococcus aureus XU-212 overexpressing TetK, mecA after 24 hrs; format: functional; conditions: XU-212, 24 h
[13] = tested on: Staphylococcus aureus; assay: Antibacterial activity against Staphylococcus aureus ATCC 25923 after 24 hrs; format: functional; conditions: ATCC 25923, 24 h

| Compound | MIC [1] | MIC [2] | MIC [3] [µg/mL] | MIC [4] | MIC [5] | MIC [6] [µg/mL] | MIC [7] | MIC [8] [µg/mL] | MIC [9] [µg/mL] | MIC [10] [µg/mL] | MIC [11] [µg/mL] | MIC [12] [µg/mL] | MIC [13] [µg/mL] |
| --- | --- | --- | --- | --- | --- | --- | --- | --- | --- | --- | --- | --- | --- |
| C=C[C@@]1(C)C[C@H](O)[C@@H]2[C@@]3(C)[C@H](O)CCC(C)(C)[C@@H]3CC[C@@]2(C)O1 | inactive | inactive | 128 (≈ 397 µM) | inactive | inactive | 128 (≈ 397 µM) | inactive | 128 (≈ 397 µM) | – | – | – | – | – |
| CC1(C)CCC[C@]2(C)[C@H]3CC[C@](C)(C4CO4)C=C3C(=O)C[C@@H]12 (relative stereo) | inactive | inactive | 64 (≈ 212 µM) | inactive | inactive | 128 (≈ 423 µM) | inactive | 128 (≈ 423 µM) | – | – | – | – | – |
| CC1(C)CCC[C@]2(C)[C@H]3CC[C@](C)(C4CO4)C=C3[C@H](O)C[C@@H]12 (relative stereo) | – | – | 8 (≈ 26.3 µM) | – | – | 16 (≈ 52.5 µM) | – | 16 (≈ 52.5 µM) | 32 (≈ 105 µM) | 32 (≈ 105 µM) | 32 (≈ 105 µM) | 32 (≈ 105 µM) | 32 (≈ 105 µM) |
| CC[C@H]1OC(=O)[C@H](C)[C@@H](O[C@H]2C[C@@](C)(OC)[C@@H](O)[C@H](C)O2)[C@H](C)[C@@H](O[C@@H]2O[C@H](C)C[C@H](N(C)C)[C@H]2O)[C@](C)(O)C[C@@H](C)C(=O)[C@H](C)[C@@H](O)[C@]1(C)O [ERYTHROMYCIN] | – | – | – | – | – | – | – | – | – | – | 128 (≈ 174 µM) | – | – |
| CC[C@@H](CO)NCCN[C@@H](CC)CO [ETHAMBUTOL] | – | – | 2 (≈ 9.79 µM) | – | – | 0.5 (≈ 2.45 µM) | – | 4 (≈ 19.6 µM) | – | – | – | – | – |
| CCn1cc(C(=O)O)c(=O)c2cc(F)c(N3CCNCC3)cc21 [NORFLOXACIN] | – | – | – | – | – | – | – | – | 2 (≈ 6.26 µM) | 32 (≈ 100 µM) | – | – | 0.5 (≈ 1.57 µM) |
| CN(C)[C@@H]1C(O)=C(C(N)=O)C(=O)[C@@]2(O)C(O)=C3C(=O)c4c(O)cccc4[C@@](C)(O)[C@H]3C[C@@H]12 [TETRACYCLINE] | – | – | – | – | – | – | – | – | – | – | – | 128 (≈ 288 µM) | – |
